ChEMBL document CHEMBL1687931, “Involvement of heme oxygenase-1 induction via Nrf2/ARE activation in protection against H2O2-induced PC12 cell death by a metabolite of sesamin contained in sesame seeds” (2011)
Activity calls are given as the source filed them. No cut-off for these calls is given here.

Tests used:
[1] = biological target: T1, Nuclear factor erythroid 2-related factor 2 (Rattus norvegicus) (UniProt O54968); test: Induction of NRF2/ARE enhancer activity rat PC12 cells transfected with ARE-firefly luciferase reporter gene at 10 uM after 24 hrs by luciferase assay; format: functional, cell-based; settings: PC-12
T1 sequence (whole entry): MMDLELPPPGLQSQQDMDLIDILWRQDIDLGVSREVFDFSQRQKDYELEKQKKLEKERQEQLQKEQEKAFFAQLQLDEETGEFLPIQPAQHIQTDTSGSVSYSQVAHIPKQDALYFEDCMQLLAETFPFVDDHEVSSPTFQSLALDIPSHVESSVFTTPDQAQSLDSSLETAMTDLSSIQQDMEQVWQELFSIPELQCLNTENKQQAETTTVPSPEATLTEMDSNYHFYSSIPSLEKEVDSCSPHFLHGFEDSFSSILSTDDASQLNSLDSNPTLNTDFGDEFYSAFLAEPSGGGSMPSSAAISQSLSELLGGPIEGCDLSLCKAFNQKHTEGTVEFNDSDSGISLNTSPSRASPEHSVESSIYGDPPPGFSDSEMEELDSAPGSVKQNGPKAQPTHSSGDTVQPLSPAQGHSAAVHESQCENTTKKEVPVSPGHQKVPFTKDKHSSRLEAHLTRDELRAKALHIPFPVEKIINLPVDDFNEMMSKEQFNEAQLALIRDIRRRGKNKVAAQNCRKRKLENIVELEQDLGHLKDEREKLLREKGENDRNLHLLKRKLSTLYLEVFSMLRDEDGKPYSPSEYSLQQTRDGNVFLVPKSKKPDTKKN

[2] = biological target: T1, Nuclear factor erythroid 2-related factor 2 (Rattus norvegicus); test: Activation of Nrf2/ARE in rat PC12 cells assessed as upregulation of HO-1 protein expression at 10 uM after 12 hrs by Western blot analysis; format: functional, cell-based; settings: PC-12
[3] = biological target: T1, Nuclear factor erythroid 2-related factor 2 (Rattus norvegicus); test: Induction of nuclear translocation of Nrf2 in rat PC12 cells at 10 uM after 6 hrs by Western blot analysis; format: functional, cell-based; settings: PC-12
[4] = biological target: T1, Nuclear factor erythroid 2-related factor 2 (Rattus norvegicus); test: Activation of Nrf2/ARE in rat PC12 cells assessed as upregulation of HO-1 protein expression at 10 uM after 6 hrs by Western blot analysis; format: functional, cell-based; settings: PC-12
[5] = biological target: T1, Nuclear factor erythroid 2-related factor 2 (Rattus norvegicus); test: Activation of Nrf2/ARE in rat PC12 cells assessed as upregulation of HO-1 mRNA expression at 10 uM after 6 hrs by RT-PCR; format: functional, cell-based; settings: PC-12
[6] = biological target: T1, Nuclear factor erythroid 2-related factor 2 (Rattus norvegicus); test: Activation of Nrf2/ARE in rat PC12 cells assessed as induction of GCSc protein expression at 10 uM by Western blot analysis; format: functional, cell-based; settings: PC-12
[7] = biological target: T1, Nuclear factor erythroid 2-related factor 2 (Rattus norvegicus); test: Activation of Nrf2/ARE in rat PC12 cells assessed as induction of NQO-1 protein expression by Western blot analysis; format: functional, cell-based; settings: PC-12
PC-12 [8] = test: Phosphorylation of JNK in rat PC12 cells at 10 uM up to 120 mins by Western blot analysis; format: cell-based
PC-12 [9] = test: Phosphorylation of p38 kinase in rat PC12 cells at 10 uM up to 120 mins by Western blot analysis; format: cell-based
[10] = biological target: Mitogen-activated protein kinase 3 (Rattus norvegicus) (UniProt P21708); test: Phosphorylation of ERK1 in rat PC12 cells at 10 uM after 30 mins by Western blot analysis; format: cell-based; settings: PC-12
[11] = biological target: Mitogen-activated protein kinase 1 (Rattus norvegicus) (UniProt P63086); test: Phosphorylation of ERK2 in rat PC12 cells at 10 uM after 30 mins by Western blot analysis; format: cell-based; settings: PC-12
PC-12 [12] = test: Increase in intracellular ROS production in rat PC12 cells at 10 uM up to 1 hr by CM-H2-DCFDA staining-based fluorescence assay; format: functional, cell-based
PC-12 [13] = test: Increase in intracellular ROS production in rat PC12 cells at 10 uM after 0.5 hr by CM-H2-DCFDA staining-based fluorescence assay; format: functional, cell-based
PC-12 [14] = test: Increase in intracellular ROS production in rat PC12 cells assessed as induction of p38 phosphorylation at 10 uM after 1 hr by Western blot analysis; format: functional, cell-based
PC-12 [15] = test: Increase in intracellular ROS production in rat PC12 cells assessed as NRF2-mediated HO-1 induction at 10 uM after 24 hrs pretreated with N-acetylcysteine for 1 hr before compound addition by Western blot analysis; format: functional, cell-based
PC-12 [16] = test: Increase in intracellular ROS production in rat PC12 cells assessed as induction of p38 phosphorylation at 10 uM after 1 hr pretreated with N-acetylcysteine for 1 hr before compound addition by Western blot analysis; format: functional, cell-based
[17] = biological target: T1, Nuclear factor erythroid 2-related factor 2 (Rattus norvegicus); test: Activation of Nrf2/ARE in rat PC12 cells assessed as inhibition of H2O2-induced oxidative stress by measuring cell viability pretreated with 10 uM for 6 hrs in presence of HO-1 inhibitor Zn-protoporphyrin; format: functional, cell-based; settings: PC-12
[18] = biological target: T1, Nuclear factor erythroid 2-related factor 2 (Rattus norvegicus); test: Induction of nuclear translocation of Nrf2 in rat PC12 cells at 10 uM after 1 hr by Western blot analysis; format: functional, cell-based; settings: PC-12
[19] = biological target: T1, Nuclear factor erythroid 2-related factor 2 (Rattus norvegicus); test: Effect on Nrf2 protein in rat PC12 cell cytoplasmic fraction at 10 uM up to 6 hrs by Western blot analysis; format: functional, cell-based; settings: PC-12
[20] = biological target: T1, Nuclear factor erythroid 2-related factor 2 (Rattus norvegicus); test: Activation of Nrf2/ARE in rat PC12 cells assessed as effect on HO-1 protein level at 10 uM after 24 hrs by Western blot analysis; format: functional, cell-based; settings: PC-12
[21] = biological target: T1, Nuclear factor erythroid 2-related factor 2 (Rattus norvegicus); test: Activation of Nrf2/ARE in rat PC12 cells assessed as upregulation of HO-1 protein expression at 1 to 10 uM after 12 hrs by Western blot analysis; format: functional, cell-based; settings: PC-12
PC-12 [22] = test: Increase in intracellular ROS production in rat PC12 cells at 10 uM after 6 hrs by CM-H2-DCFDA staining-based fluorescence assay; format: functional, cell-based
PC-12 [23] = test: Increase in intracellular ROS production in rat PC12 cells assessed as NRF2-mediated HO-1 induction at 10 uM after 24 hrs by Western blot analysis; format: functional, cell-based
PC-12 [24] = test: Neuroprotective activity against H2O2-induced oxidative stress in rat PC12 cells assessed as cell viability pretreated with 2 uM for 6 hrs measured before inducer addition; format: functional; settings: read-out: Activity
PC-12 [25] = test: Neuroprotective activity against H2O2-induced oxidative stress in rat PC12 cells assessed as cell viability pretreated with 5 uM for 6 hrs measured before inducer addition; format: functional; settings: read-out: Activity
PC-12 [26] = test: Neuroprotective activity against H2O2-induced oxidative stress in rat PC12 cells assessed as cell viability pretreated with 10 uM for 6 hrs measured before inducer addition; format: functional; settings: read-out: Activity
PC-12 [27] = test: Neuroprotective activity against H2O2-induced oxidative stress in rat PC12 cells expressing dominant-negative Nrf2 mutant assessed as cell viability pretreated with 10 uM for 6 hrs; format: functional, cell-based

Mitogen-activated protein kinase 1 (Rattus norvegicus), sequence (P63086 whole entry): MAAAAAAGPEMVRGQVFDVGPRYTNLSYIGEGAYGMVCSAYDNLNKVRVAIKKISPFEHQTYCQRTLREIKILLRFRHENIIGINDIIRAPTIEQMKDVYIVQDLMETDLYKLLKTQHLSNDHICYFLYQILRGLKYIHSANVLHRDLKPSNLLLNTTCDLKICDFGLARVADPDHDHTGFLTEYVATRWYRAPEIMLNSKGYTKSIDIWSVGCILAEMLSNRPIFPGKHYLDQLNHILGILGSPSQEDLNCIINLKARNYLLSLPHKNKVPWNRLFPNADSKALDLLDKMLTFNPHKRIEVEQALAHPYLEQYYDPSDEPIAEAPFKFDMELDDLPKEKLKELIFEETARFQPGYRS
Mitogen-activated protein kinase 3 (Rattus norvegicus), sequence (P21708 whole entry): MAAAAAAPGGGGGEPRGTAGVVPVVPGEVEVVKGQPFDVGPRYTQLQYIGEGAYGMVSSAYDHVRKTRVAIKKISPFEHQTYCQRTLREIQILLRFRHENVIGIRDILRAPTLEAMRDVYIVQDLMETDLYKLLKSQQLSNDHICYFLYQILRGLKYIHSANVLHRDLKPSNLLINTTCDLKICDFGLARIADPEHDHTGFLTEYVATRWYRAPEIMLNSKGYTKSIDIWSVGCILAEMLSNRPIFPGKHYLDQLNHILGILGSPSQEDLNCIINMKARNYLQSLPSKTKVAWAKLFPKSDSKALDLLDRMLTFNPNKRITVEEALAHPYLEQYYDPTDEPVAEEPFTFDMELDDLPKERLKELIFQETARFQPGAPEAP

Q: How did the Activity [1] turn out when `Oc1ccc([C@H]2OC[C@H]3[C@@H]2CO[C@@H]3c2ccc(O)c(O)c2)cc1O` was run?
A: The Activity was “Active”.

Q: How did the Activity [1] turn out when `c1cc2c(cc1[C@H]1OC[C@H]3[C@@H]1CO[C@@H]3c1ccc3c(c1)OCO3)OCO2` was run?
A: The Activity was “inactive”.

Q: `Oc1ccc([C@H]2OC[C@H]3[C@@H]2CO[C@H]3c2ccc(O)c(O)c2)cc1O` was tested. Which Activity [1] did it give?
A: Its Activity is “inactive”.

Q: How did the Activity [2] turn out when `Oc1ccc([C@H]2OC[C@H]3[C@@H]2CO[C@@H]3c2ccc3c(c2)OCO3)cc1O` was run?
A: The Activity was “Active”.

Q: What about the Activity [3] of the same compound?
A: The Activity was “Active”.

Q: And the Activity [4]?
A: Its Activity is “Active”.

Q: What about the fold change (FC) [5] of the same compound?
A: Its fold change (FC) is 6.

Q: What about the Activity [6] of the same compound?
A: The Activity was “Active”.

Q: And the Activity [7]?
A: Its Activity is “Active”.

Q: What about the fold change (FC) [1] of the same compound?
A: Its fold change (FC) is 2.

Q: And the Activity (PC-12 [8])?
A: Its Activity is “Active”.

Q: And the Activity (PC-12 [9])?
A: The Activity was “Active”.

Q: What about the Activity [10] of the same compound?
A: The Activity was “Active”.

Q: And the Activity [11]?
A: The Activity was “Active”.

Q: And the Activity (PC-12 [12])?
A: Its Activity is “Active”.

Q: What about the Activity (PC-12 [13]) of the same compound?
A: Its Activity is “Active”.

Q: What about the Activity (PC-12 [14]) of the same compound?
A: The Activity was “Active”.

Q: What about the Activity (PC-12 [15]) of the same compound?
A: The Activity was “inactive”.

Q: And the Activity (PC-12 [16])?
A: Its Activity is “inactive”.

Q: And the Activity [17]?
A: The Activity was “inactive”.

Q: What about the Activity [18] of the same compound?
A: Its Activity is “Active”.

Q: What about the Activity [19] of the same compound?
A: The Activity was “inactive”.

Q: And the Activity [20]?
A: The Activity was “inactive”.

Q: And the Activity [21]?
A: Its Activity is “Dose-dependent effect”.

Q: What about the Activity (PC-12 [22]) of the same compound?
A: The Activity was “inactive”.

Q: What about the Activity (PC-12 [23]) of the same compound?
A: Its Activity is “Active”.

Q: What about the viability at 2 µM (PC-12 [24]) of the same compound?
A: The viability at 2 µM was 52%.

Q: What about the viability at 5 µM (PC-12 [25]) of the same compound?
A: Its viability at 5 µM is 67%.

Q: And the viability at 10 µM (PC-12 [26])?
A: Its viability at 10 µM is 82%.

Q: And the Activity (PC-12 [27])?
A: The Activity was “inactive”.

Q: `c1cc2c(cc1[C@H]1OC[C@H]3[C@@H]1CO[C@H]3c1ccc3c(c1)OCO3)OCO2` was tested. Which Activity [1] did it give?
A: The Activity was “inactive”.

Q: How did the fold change (FC) [1] turn out when `Oc1ccc(C2OC[C@@H]3C(c4ccc5c(c4)OCO5)OC[C@H]23)cc1O` (some centres undefined) was run?
A: Its fold change (FC) is 2.

Q: `COc1cc(C2OC[C@@H]3C(c4ccc5c(c4)OCO5)OC[C@H]23)ccc1O` (mixture of isomers) was tested. Which Activity [1] did it give?
A: The Activity was “inactive”.

Q: Which Activity [1] does the source give for `COc1cc([C@H]2OC[C@H]3[C@@H]2CO[C@@H]3c2ccc3c(c2)OCO3)ccc1O` here?
A: The Activity was “inactive”.
